Assay results reported in PubChem BioAssay (NCI).
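Each compound was tested at five concentrations against cells in 96-well plates for 48 hours. Definition used: TGI = concentration required for complete inhibition of growth.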

Assays:
Assay in all cases: NCI-60 cell line screen, 48 h
786-0 renal = tested on: 786-0 renal
A549 NSCLC = tested on: A549 NSCLC
ACHN renal = tested on: ACHN renal
BT-549 breast = tested on: BT-549 breast
CAKI-1 renal = tested on: CAKI-1 renal
CCRF-CEM leukemia = tested on: CCRF-CEM leukemia
COLO 205 colon = tested on: COLO 205 colon
DU-145 prostate = tested on: DU-145 prostate
HCT-116 colon = tested on: HCT-116 colon
HCT-15 colon = tested on: HCT-15 colon
HL-60(TB) leukemia = tested on: HL-60(TB) leukemia
HOP-62 NSCLC = tested on: HOP-62 NSCLC
HS 578T breast = tested on: HS 578T breast
HT29 colon = tested on: HT29 colon
IGROV1 ovarian = tested on: IGROV1 ovarian
K-562 leukemia = tested on: K-562 leukemia
KM12 colon = tested on: KM12 colon
LOX IMVI melanoma = tested on: LOX IMVI melanoma
M14 melanoma = tested on: M14 melanoma
MALME-3M melanoma = tested on: MALME-3M melanoma
MCF7 breast = tested on: MCF7 breast
MDA-MB-231 breast = tested on: MDA-MB-231 breast
MDA-MB-435 = tested on: MDA-MB-435
MDA-N = tested on: MDA-N
MOLT-4 leukemia = tested on: MOLT-4 leukemia
NCI-H226 lung = tested on: NCI-H226 lung
NCI-H23 lung = tested on: NCI-H23 lung
NCI-H460 lung = tested on: NCI-H460 lung
NCI-H522 lung = tested on: NCI-H522 lung
NCI/ADR-RES ovarian = tested on: NCI/ADR-RES ovarian
OVCAR-3 ovarian = tested on: OVCAR-3 ovarian
OVCAR-8 ovarian = tested on: OVCAR-8 ovarian
PC-3 prostate = tested on: PC-3 prostate
RPMI-8226 leukemia = tested on: RPMI-8226 leukemia
RXF 393 renal = tested on: RXF 393 renal
SF-268 CNS = tested on: SF-268 CNS
SF-295 CNS = tested on: SF-295 CNS
SF-539 CNS = tested on: SF-539 CNS
SK-MEL-28 melanoma = tested on: SK-MEL-28 melanoma
SK-MEL-5 melanoma = tested on: SK-MEL-5 melanoma
SK-OV-3 ovarian = tested on: SK-OV-3 ovarian
SN12C renal = tested on: SN12C renal
SNB-19 CNS = tested on: SNB-19 CNS
SNB-75 CNS = tested on: SNB-75 CNS
SR leukemia = tested on: SR leukemia
SW-620 colon = tested on: SW-620 colon
T-47D breast = tested on: T-47D breast
TK-10 renal = tested on: TK-10 renal
U251 CNS = tested on: U251 CNS
UACC-257 melanoma = tested on: UACC-257 melanoma
UACC-62 melanoma = tested on: UACC-62 melanoma
UO-31 renal = tested on: UO-31 renal
A498 renal = tested on: A498 renal
EKVX NSCLC = tested on: EKVX NSCLC
HOP-92 NSCLC = tested on: HOP-92 NSCLC
OVCAR-4 ovarian = tested on: OVCAR-4 ovarian
OVCAR-5 ovarian = tested on: OVCAR-5 ovarian
SK-MEL-2 melanoma = tested on: SK-MEL-2 melanoma

SMILES: O=C1/C(=C\c2ccc([N+](=O)[O-])cc2)N(S(=O)(=O)c2ccccc2)c2ncccc21
- TGI (786-0 renal): 37.1 µM
- TGI (A549 NSCLC): > 100 µM
- TGI (ACHN renal): 31.4 µM
- TGI (BT-549 breast): 32.7 µM
- TGI (CAKI-1 renal): 20.9 µM
- TGI (CCRF-CEM leukemia): > 100 µM
- TGI (COLO 205 colon): 56.8 µM
- TGI (DU-145 prostate): 75.4 µM
- TGI (HCT-116 colon): 43.1 µM
- TGI (HCT-15 colon): 32.3 µM
- TGI (HL-60(TB) leukemia): 5.4 µM
- TGI (HOP-62 NSCLC): 46.2 µM
- TGI (HS 578T breast): 81.3 µM
- TGI (HT29 colon): 35 µM
- TGI (IGROV1 ovarian): 36.8 µM
- TGI (K-562 leukemia): > 100 µM
- TGI (KM12 colon): 44.3 µM
- TGI (LOX IMVI melanoma): 47.5 µM
- TGI (M14 melanoma): 41.2 µM
- TGI (MALME-3M melanoma): 33 µM
- TGI (MCF7 breast): > 100 µM
- TGI (MDA-MB-231 breast): 38.4 µM
- TGI (MDA-MB-435): 47.2 µM
- TGI (MDA-N): 45.3 µM
- TGI (MOLT-4 leukemia): 13.5 µM
- TGI (NCI-H226 lung): 83.5 µM
- TGI (NCI-H23 lung): 42.1 µM
- TGI (NCI-H460 lung): 38.3 µM
- TGI (NCI-H522 lung): 54.4 µM
- TGI (NCI/ADR-RES ovarian): 63.3 µM
- TGI (OVCAR-3 ovarian): 31.3 µM
- TGI (OVCAR-8 ovarian): 70.2 µM
- TGI (PC-3 prostate): 33.4 µM
- TGI (RPMI-8226 leukemia): 41 µM
- TGI (RXF 393 renal): 37 µM
- TGI (SF-268 CNS): 70.7 µM
- TGI (SF-295 CNS): 75.4 µM
- TGI (SF-539 CNS): 55.5 µM
- TGI (SK-MEL-28 melanoma): 41.8 µM
- TGI (SK-MEL-5 melanoma): 31.4 µM
- TGI (SK-OV-3 ovarian): 19.8 µM
- TGI (SN12C renal): 50.2 µM
- TGI (SNB-19 CNS): 65 µM
- TGI (SNB-75 CNS): 43.1 µM
- TGI (SR leukemia): 20.8 µM
- TGI (SW-620 colon): 34.2 µM
- TGI (T-47D breast): 35 µM
- TGI (TK-10 renal): 31.9 µM
- TGI (U251 CNS): 34.2 µM
- TGI (UACC-257 melanoma): 42.8 µM
- TGI (UACC-62 melanoma): 26 µM
- TGI (UO-31 renal): 38.2 µM

SMILES: C[C@@H](C(=O)O)N1C(c2ccco2)=C(/C(C=O)=C\c2ccco2)C(=O)/C1=C\c1ccco1
- TGI (786-0 renal): > 100 µM
- TGI (A498 renal): > 100 µM
- TGI (A549 NSCLC): > 100 µM
- TGI (ACHN renal): > 100 µM
- TGI (BT-549 breast): > 100 µM
- TGI (CAKI-1 renal): > 100 µM
- TGI (CCRF-CEM leukemia): > 100 µM
- TGI (COLO 205 colon): > 100 µM
- TGI (DU-145 prostate): > 100 µM
- TGI (EKVX NSCLC): > 100 µM
- TGI (HCT-116 colon): > 100 µM
- TGI (HCT-15 colon): > 100 µM
- TGI (HL-60(TB) leukemia): > 100 µM
- TGI (HOP-62 NSCLC): > 100 µM
- TGI (HOP-92 NSCLC): > 100 µM
- TGI (HS 578T breast): > 100 µM
- TGI (HT29 colon): > 100 µM
- TGI (IGROV1 ovarian): > 100 µM
- TGI (K-562 leukemia): > 100 µM
- TGI (KM12 colon): > 100 µM
- TGI (LOX IMVI melanoma): > 100 µM
- TGI (M14 melanoma): > 100 µM
- TGI (MALME-3M melanoma): > 100 µM
- TGI (MCF7 breast): > 100 µM
- TGI (MDA-MB-231 breast): > 100 µM
- TGI (MDA-MB-435): > 100 µM
- TGI (MDA-N): > 100 µM
- TGI (MOLT-4 leukemia): > 100 µM
- TGI (NCI-H23 lung): > 100 µM
- TGI (NCI-H522 lung): > 100 µM
- TGI (NCI/ADR-RES ovarian): > 100 µM
- TGI (OVCAR-3 ovarian): > 100 µM
- TGI (OVCAR-4 ovarian): > 100 µM
- TGI (OVCAR-5 ovarian): > 100 µM
- TGI (OVCAR-8 ovarian): > 100 µM
- TGI (PC-3 prostate): > 100 µM
- TGI (RPMI-8226 leukemia): > 100 µM
- TGI (RXF 393 renal): > 100 µM
- TGI (SF-268 CNS): > 100 µM
- TGI (SF-295 CNS): > 100 µM
- TGI (SF-539 CNS): > 100 µM
- TGI (SK-MEL-2 melanoma): > 100 µM
- TGI (SK-MEL-28 melanoma): > 100 µM
- TGI (SK-MEL-5 melanoma): > 100 µM
- TGI (SN12C renal): > 100 µM
- TGI (SNB-19 CNS): > 100 µM
- TGI (SW-620 colon): > 100 µM
- TGI (T-47D breast): > 100 µM
- TGI (TK-10 renal): > 100 µM
- TGI (U251 CNS): > 100 µM
- TGI (UACC-257 melanoma): > 100 µM
- TGI (UACC-62 melanoma): > 100 µM
- TGI (UO-31 renal): > 100 µM
